Experimental data published in US4039666A, “Anticonvulsant phenylsilanes” (Dow Corning Corporation, priority 1976, dated 1977).
Where two headings read alike, the source gives them in different places.

Tests used:
mice [1] = experiment: Potentiation of hexobarbital sleep time (relative sedative activity); format: in vivo, mice (male, Carworth CF1 strain); conditions: Table I; 316 mg/kg test compound oral, 90 minutes before hexobarbital 100 mg/kg i.p.
Protocol: As a test of relative sedative activity of the various silanes, the ability of each to potentiate the action of hexobarbital was studied. For each silane, two groups of male mice (Carworth CF1 strain) were utilized as test animals. Two groups of mice (six/group) were used, one group was orally dosed with 316 mg./kg. of the test silane in sesame oil carrier 90 minutes before administration of hexobarbital. Hexobarbital was administered by intraperitoneal injection of 100 mg./kg. in saline carrier. The time from loss of the righting reflex to recovery of the righting reflex was recorded as sleep time. Potentiation of hexobarbital of the test silane is the ratio of the mean sleep time by the group of test animals dosed with the silane divided by the mean sleep time of the control group not dosed with silane.
^4 Potentiation of hexobarbital - values are the ratios of sleep time
of animals dosed with 316 mg/kg test compound plus 100 mg/kg hexobarbital
to the sleep times of animals dosed with hexobarbital alone.

mice [2] = experiment: Protection vs. pentylenetetrazol clonic convulsions; format: in vivo; conditions: Table I, 316 mg/kg test compound, oral in sesame oil, pentylenetetrazol 80 mg/kg s.c., n.p. = no protection observed; for responders at 316 mg/kg: Mus musculus, read-out: Protection vs. Pentylenetetrazol (numbers of mice protected from clonic convulsion/number tested) (converted)
Protocol: (§1) ^1 The test silane was administered orally in sesame oil vehicle at
^3 Pentylenetetrazol 80 mg/kg s.c. produces clonic convulsions in 90%
of control mice. Values in table are the numbers of mice protected from
clonic convulsion/number tested when dosed with 316 mg/kg test compound.

Acute oral LD50 = format: in vivo, mice (male, 25 gm.); conditions: mouse, in vivo; Table II; male mice, oral in sesame oil, highest dose 5000 mg/kg, observed 14 days, Finney's method; read-out: LD50 (95% Confidence Interval)
Protocol: (§2) ^1 Male mice, 25 gm. were used. Each compound was
(§3) given orally in sesame oil at doses ranging from
(§4) highest dose was 5000 mg/kg. The mice were
(§5) observed for 14 days and the number of deaths
(§6) was recorded. LD50 values were calculated by […]

mice [3] = experiment: Electroshock test (Maximal Electroshock Test, M.E.S.), inhibition of tonic extension of hind limbs; format: in vivo, mice (adult male, Carworth CF 1 strain); conditions: for ED50: Mus musculus
Protocol: The electroshock test procedure was used to determine anticonvulsant activities of diphenylmethylsilanol. Adult male mice (Carworth CF 1 strain) were utilized as test animals. […] Seizure protection was scored as inhibition of tonic extension. Groups of mice (six/group) were dosed orally with varying amounts of diphenylmethylsilanol in a sesame oil suspension. The dosages ranged from 10 to 1000 mg./kg. and the train of electric shocks was applied 2, 4 and 6 hours after dosing. The effective dose to prevent convulsions in half the animals (ED50) was determined at 2, 4 and 6 hours to be 52, 63, 100 mg/kg, respectively, and the 95 percent CI (confidence interval) was 23 to 114 mg./kg.; 27 to 141 mg./kg.; 47 to 212 mg./kg.
The electric shock test procedure was also used to determine anticonvulsant activities of phenylmethyldimethoxysilane. Adult male mice (Carworth CF 1 strain) were utilized as test animals. […] Seizure protection was scored as in Example 1. Groups of mice ten/group) were dosed orally with varying amounts of phenylmethyldimethoxysilane in a sesame oil solution. The dosages ranged from 25 to 200 mg./kg. and the train of electric shocks was applied 1/2, 1, 11/2, 2 and 3 hours after dosing. The effective dose to prevent convulsions in half the animals (ED50) was determined at 1/2, 1, 11/2, 2 and 3 hours to be 52, 86, 64, 82 and 90 mg./kg., respectively. Utilizing the same electroshock test procedure as set forth in the first paragraph of this example, groups of mice (ten/group) were dosed intraperitoneally with varying amounts of phenylmethyldimethoxysilane in a sesame oil solution. The dosages ranged from 25 to 200 mg./kg. and the train of electric shocks was applied 1/2, 1, 11/2, 2 and 3 hours after dosing. The effective dose to prevent convulsions in half the animals (ED50) was determined at 1/2, 1, 11/2, 2 and 3 hours to be 45, 65, 52, 51 and 70 mg./kg., respectively.
The electric shock test used in Example 1 and 2 was used in determining the anticonvulsant activities of several other silanes.
as §1
^2 M.E.S. - Maximal Electroshock Test - ED50 is dose calculated
to protect 50% of mice from tonic extensor convulsion. The dosages ranged

mice [4] = experiment: Acute oral LD50; format: in vivo, mice (male, 25 gm.); conditions: Table II footnote 2; oral in sesame oil, up to 5000 mg/kg, 14 days
Protocol: as §2, §3, §4, §5, §6

[5] = Table I, oral, sesame oil, 2 hours after dosing, n.p. = no protection observed, read-out: MES ED50
[6] = Table I, oral, sesame oil, 4 hours after dosing, read-out: MES ED50
[7] = Table I, oral, sesame oil, 6 hours after dosing, read-out: MES ED50

Row | Compound | Potentiation of Hexobarbital (ratio of sleep time with test compound to hexobarbital alone) (mice [1]) | Protection vs. Pentylenetetrazol (numbers of mice protected from clonic convulsion/number tested) (mice [2]) | ED50 (mice [3]; [5]) [mg/kg] | ED50 (mice [3]; [6]) [mg/kg] | ED50 (mice [3]; [7]) [mg/kg] | responders at 316 mg/kg (mice [2]) [%] | also measured
1 | CCO[Si](OCC)(OCC)c1ccccc1 [.phi.Si(OCH2 CH3)3] | 2.1 | n.p. | 170 | 31 | 220 | – | LD50 at 336 h (Acute oral LD50): 5140 mg/kg
2 | C[Si](O)(c1ccccc1)c1ccccc1 [diphenylmethylsilanol] | 1.5 | – | 52 | 63 | 100 | 50 | ED50 (mice [3]; Example 1, oral, sesame oil suspension, 2 hours after dosing, 95 percent CI 23 to 114 mg./kg., six mice/group, read-out: effective dose to prevent convulsions in half the animals (ED50)): 52 mg/kg; ED50 (mice [3]; Example 1, oral, sesame oil suspension, 4 hours after dosing, 95 percent CI 27 to 141 mg./kg., six mice/group, read-out: effective dose to prevent convulsions in half the animals (ED50)): 63 mg/kg; ED50 (mice [3]; Example 1, oral, sesame oil suspension, 6 hours after dosing, 95 percent CI 47 to 212 mg./kg., six mice/group, read-out: effective dose to prevent convulsions in half the animals (ED50)): 100 mg/kg
3 | CCO[Si](C)(C)c1ccccc1 [drawing 8; R1=CH3; R2=CH3; X=OC2 H5] | > 1.3 | – | 200 | 213 | 350 | 33.3 | –
4 | C[Si](C)(O)c1ccccc1 [drawing 8; R1=CH3; R2=CH3; X=OH] | 2.7 | – | 118 | 135 | 110 | 33.3 | –
5 | O[Si](c1ccccc1)(c1ccccc1)c1ccccc1 [drawing 9; X=OH] | 1.9 | n.p. | 105 | 60 | 110 | – | –
6 | CCO[Si](CC)(OCC)c1ccccc1 [drawing 10; R1=C2 H5; X=OC2 H5] | 1.8 | – | 150 | 180 | 64 | 66.7 | –
7 | CC[Si](O)(O)c1ccccc1 [drawing 10; R1=C2 H5; X=OH] | 1.7 | – | 120 | 160 | – | 100 | –
8 | CCO[Si](C)(OCC)c1ccccc1 [drawing 10; R1=CH3; X=OC2 H5] | 1.1 | n.p. | 180 | 31 | 220 | – | –
9 | CC(C)O[Si](C)(OC(C)C)c1ccccc1 [drawing 10; R1=CH3; X=OCH(CH3)2] | 1.8 | – | 94 | 84 | 41 | 33.3 | –
10 | C[Si](O)(O)c1ccccc1 [drawing 10; R1=CH3; X=OH, phenylmethylsilanediol] | 1.8 | – | 80 | 110 | 80 | 33.3 | –
11 | CC(=O)O[Si](C)(OC(C)=O)c1ccccc1 [drawing 10; R1=CH3; X=drawing 11] | 1.8 | n.p. | 200 | 125 | 142 | – | –
12 | C=C[Si](OCC)(OCC)c1ccccc1 [drawing 10; R1=CHCH2; X=OC2 H5] | 0.9 | – | 170 | 200 | 200 | 16.7 | –
13 | CO[Si](OC)(OC)c1ccccc1 [drawing 12; X=OCH3] | 1.3 | n.p. | 560 | 300 | 160 | – | –
14 | CC(C)O[Si](OC(C)C)(OC(C)C)c1ccccc1 [drawing 12; X=OCH(CH3)2] | 2.1 | n.p. | – | > 1000 | 800 | – | MES ED50 (mice [3]; Table I, oral, sesame oil, 2 hours after dosing, n.p. = no protection observed): n.p.
15 | CCO[Si](C)(C)c1ccccc1 [drawing 14] | – | – | – | – | – | – | LD50 at 336 h (Acute oral LD50): 5380 mg/kg
16 | C[Si](O)(c1ccccc1)c1ccccc1 [drawing 15] | – | – | – | – | – | – | deaths observed at any dose level used (mice [4]): No deaths were observed; LD50 at 336 h (Acute oral LD50): > 5000 mg/kg
17 | CO[Si](C)(OC)c1ccccc1 [phenylmethyldimethoxysilane] | 1.2 | – | 56 | 50 | 106 | 33.3 | ED50 (mice [3]; 0.5 h, Example 2, oral, sesame oil solution, 1/2 hour after dosing, ten mice/group, read-out: effective dose to prevent convulsions in half the animals (ED50)): 52 mg/kg; ED50 (mice [3]; 1.5 h, Example 2, oral, sesame oil solution, 11/2 hours after dosing, ten mice/group, read-out: effective dose to prevent convulsions in half the animals (ED50)): 64 mg/kg; ED50 (mice [3]; ip, 0.5 h, Example 2, intraperitoneal, sesame oil solution, 1/2 hour after dosing, ten mice/group, read-out: effective dose to prevent convulsions in half the animals (ED50)): 45 mg/kg; ED50 (mice [3]; ip, 1.5 h, Example 2, intraperitoneal, sesame oil solution, 11/2 hours after dosing, ten mice/group, read-out: effective dose to prevent convulsions in half the animals (ED50)): 52 mg/kg; ED50 (mice [3]; ip, Example 2, intraperitoneal, sesame oil solution, 1 hour after dosing, ten mice/group, read-out: effective dose to prevent convulsions in half the animals (ED50)): 65 mg/kg; ED50 (mice [3]; ip, Example 2, intraperitoneal, sesame oil solution, 2 hours after dosing, ten mice/group, read-out: effective dose to prevent convulsions in half the animals (ED50)): 51 mg/kg; ED50 (mice [3]; ip, Example 2, intraperitoneal, sesame oil solution, 3 hours after dosing, ten mice/group, read-out: effective dose to prevent convulsions in half the animals (ED50)): 70 mg/kg; ED50 (mice [3]; Example 2, oral, sesame oil solution, 1 hour after dosing, ten mice/group, read-out: effective dose to prevent convulsions in half the animals (ED50)): 86 mg/kg; ED50 (mice [3]; Example 2, oral, sesame oil solution, 2 hours after dosing, ten mice/group, read-out: effective dose to prevent convulsions in half the animals (ED50)): 82 mg/kg; ED50 (mice [3]; Example 2, oral, sesame oil solution, 3 hours after dosing, ten mice/group, read-out: effective dose to prevent convulsions in half the animals (ED50)): 90 mg/kg
